Laboratory results taken from patent US20020039780A1, “Salicyclic acid inducible genes and promoters” (priority 1998, published 2002).

How the values were obtained:
Assay type in all cases: cell-based
[1] = system: C6-2; test: Northern analysis of mRNA accumulation in cultured tobacco cells; conditions: 0.1 and 1 mM, approximately 2.5 h
Experimental: (§1) FIG. 2. Time course of SA-induced gene expression. Northern analysis of representative differential display genes following treatment of cultured tobacco cells with SA for the indicated time (in hours, except lanes 2-4, which refer to 10, 20, and 30 min.). Twenty micrograms of total RNA was loaded per lane. Blots were hybridized with ddPCR fragments indicated at right or with the β-ATPase gene as a loading control probe. Autoradiogram exposure times were optimized for each gene. The signal for C18-1 was enhanced by using the full length cDNA as probe. Labels on left indicate response class.
(§2) FIG. 4. Specificity of induction among SA analogs and other signalling compounds. Northern analysis of representative differential display genes following treatment of tobacco cells with 100 μM or 1 mM (left and right side of triangles, respectively) of the following chemicals for 2-2.5 hr: salicylic acid (SA, lanes 4 and 5), acetylSA (ASA, lanes 6 and 7), benzoic acid (BA, lanes 8 and 9), 4-hydroxybenzoic (4HBA, lanes 10 and 11), thiamine (thia, lanes 12 and 13), methyljasmonate (MJ, lanes 14 and 15), abscisic acid (ABA, lanes 16 and 17), or 2,4-dichlorophenoxyacetic acid (2,4-D, lanes 18 and 19). Control treatments are H2O (H, lane 1), 1% ethanol (E, solvent concentration in MJ treatments, lane 2), or 1% DMSO (D, solvent concentration in 2,4D treatments, lane 3). Blots were hybridized with ddPCR fragments indicated at right or with the β-ATPase geneas a loading control probe. Autoradiogram exposure times were optimized for each gene. The signal for C18-1 was enhanced by using the full length cDNA as probe. Labels on left indicate response class.
(§3) Differential display technology (Liang, P. and Pardee, A. B., Science 257: 967-971, 1992) was used to identify genes activated in the presence of SA, CHX and both. Therefore the absence or presence of SA, induction at 3 timepoints of SA-treatment, 2 different concentrations of SA and the effect of addition of CHX were measured. Seven treatments in total were performed. Treatment of tobacco BY-2 suspension cells and leaves and differential display PCR reactions were performed as described (Horvath and Chua (1996), Plant Mol. Biol. 31, 1061-1072).
(§4) The specificity for induction by SA was tested by treating tobacco cells with a range of SA analogs and plant signalling compounds at 0.1 and 1 mM for approximately 2.5 h. […] Among the SA-analogs, acetyl-SA (ASA, aspirin), benzoic acid (BA) and 4-hydroxybenzoic acid (4HBA), responses generally reflected the ability of the analog to substitute for SA in other cellular responses (Yalpani, N. et al., Plant Cell 3: 809-818, 1991, Yang, Y. and Klessig, D. F., Proc. Natl. Acad. Sci. 93, 14972-14977, 1996). […] Several genes, including those for proteinase inhibitors and lipoxygenase (Hildmann, T. et al., Plant Cell 4: 1157-1170, 1992; Melan, M. A. et al., Plant Physiol. 101: 441-450, 1993; Xu, D. et al., Plant Mol. Biol. 22: 573-588, 1993) are known to be under dual regulation by MJ and ABA. A similar mode of regulation may be in effect with C14-1b. the auxin 2,4-D induced several genes including C18-1/EREBP1 and C6-2.

[2] = system: C18-1/EREBP1; test: as above; conditions: 0.1 and 1 mM, approximately 2.5 h
Experimental: as §1, with “The signal for C18-1 was enhanced by using the full length cDNA as probe.” left out
as §2, with “The signal for C18-1 was enhanced by using the full length cDNA as probe.” left out
(§5) FIG. 5. Dose response of C18-1 and G8-1 to a range of chemicals. Northern analysis of tobacco cell cultures with eight concentrations of SA, ASA, BA, 4HBA, Thia, MJ, ABA, 2,4-D, or H2O for 2-2.5 hr. Concentrations were 0.1, 1, 3, 10, 30, 100, 300 μM or […], as indicated.
(§6) FIG. 6. […] Graphic representation of mRNA accumulation of G8-1 ( ), C18se -1 (♦), and IEGT (o) in response to a 2-2.5 hr incubation of cultured tobacco cells with a range of SA concentrations. RNA gel blots were quantitated by phosphorimaging analysis and normalized relative to the β-ATPase gene loading control (not shown).
as §3
The kinetics of induction were examined in detail through time course experiments for representative clones of each class (FIG. 2).
(§7) The specificity for induction by SA was tested by treating tobacco cells with a range of SA analogs and plant signalling compounds at 0.1 and 1 mM for approximately 2.5 h. […] Several genes, including those for proteinase inhibitors and lipoxygenase (Hildmann, T. et al., Plant Cell 4: 1157-1170, 1992; Melan, M. A. et al., Plant Physiol. 101: 441-450, 1993; Xu, D. et al., Plant Mol. Biol. 22: 573-588, 1993) are known to be under dual regulation by MJ and ABA.
A dose-response curve was made for SA. Therefore tobacco cells were treated with SA in a range of concentrations from 0.1 μM to 2 mM.

[3] = system: early SA-induced genes identified by differential display; test: Northern analysis of differential display genes in cultured tobacco cells; conditions: 0.1 and 1 mM, approximately 2.5 h
Experimental: (§8) FIG. 1. […] Northern analysis of genes identified by differential display. Gel-purified DNA fragments produced by ddPCR were either used directly for random-primed labeling and probing of Northern filters (e.g. C7-1, C6-1, and G9-2) or first subcloned and released by restriction digest. Each lane contains 1 μg of poly(A) mRNA from cultured tobacco cells treated with (1) H2O, 4 hr; (2) 200 μM SA, 4 hr; (3) 71 μM CHX, 5 hr; (4) 71 μM CHX, 5 hr plus 200 μM SA after 1 hr (4 hr total); (5) 20 μM SA, 2 hr; (7) 200 μM SA, 8 hr.
as §2, with “The signal for C18-1 was enhanced by using the full length cDNA as probe.” left out
as §3, §7

[4] = system: C14-1b; test: Northern analysis of mRNA accumulation in cultured tobacco cells; conditions: 0.1 and 1 mM, approximately 2.5 h
Experimental: as §1, §2, §3, §4

[5] = system: G3-2; test: as above; conditions: 0.1 and 1 mM, approximately 2.5 h
Experimental: (§9) FIG. 1. Four classes of SA-induced early genes. Northern analysis of genes identified by differential display. Gel-purified DNA fragments produced by ddPCR were either used directly for random-primed labeling and probing of Northern filters (e.g. C7-1, C6-1, and G9-2) or first subcloned and released by restriction digest. Each lane contains 1 μg of poly(A) mRNA from cultured tobacco cells treated with (1) H2O, 4 hr; (2) 200 μM SA, 4 hr; (3) 71 μM CHX, 5 hr; (4) 71 μM CHX, 5 hr plus 200 μM SA after 1 hr (4 hr total); (5) 20 μM SA, 2 hr; (7) 200 μM SA, 8 hr. One blot was sequentially hybridized with the G1-1 fragment and the β-ATPase gene as a loading control probe. response classes (I-IV) are indicated on the left of the autoradiograms.
as §1, §2, §3, §4

[6] = system: G8-1; test: as above; conditions: for G8-1 induction at 0.1 mM versus 1 mM: 0.1 and 1 mM, approximately 2.5 h
Experimental: as §8
as §1, with “The signal for C18-1 was enhanced by using the full length cDNA as probe.” left out
as §2, with “The signal for C18-1 was enhanced by using the full length cDNA as probe.” left out
as §5, §6, §3
The specificity for induction by SA was tested by treating tobacco cells with a range of SA analogs and plant signalling compounds at 0.1 and 1 mM for approximately 2.5 h.

[7] = system: Class I genes; test: Northern analysis of poly(A) mRNA from treated tobacco cells; conditions: SA at 2, 4 or 8 h; 71 μM CHX 5 hrs; CHX + 200 μM SA
Experimental: as §9, §3
(§10) Fiftytwo were recovered for testing on poly(A)+Northern blots loaded with mRNA derived from cells from each of the treatments.

[8] = system: class IV genes (G3-2 and C14-1b); test: as above
Experimental: as §9, §3, §10

[9] = system: class II genes; test: as above; conditions: SA at 2, 4, 8 h; 71 μM CHX 5 hrs; CHX + 200 μM SA
Experimental: as §9, §3, §10

[10] = 71 μM CHX 5 hrs + 200 μM SA after 1 hr
[11] = SA at 2, 4, 8 h, 71 μM CHX 5 hrs

## O=C(O)COc1ccc(Cl)cc1Cl [2,4-D, 2,4-dichlorophenoxyacetic acid]
[1]
  induction of C6-2: induced
[2]
  induction of C18-1/EREBP1: induced

## O=C(O)c1ccc(O)cc1 [4HBA, 4-hydroxybenzoic acid]
[3]
  induction of the genes tested: failed to induce all genes but C6-2

## CC1=CC(=O)CC(C)(C)[C@@]1(O)/C=C/C(C)=C\C(=O)O [ABA, abscisic acid]
[4]
  induction of C14-1b: could be induced

## CC(=O)Oc1ccccc1C(=O)O [ASA, acetyl-SA]
[1]
  C6-2 induction at 0.1 mM versus 1 mM: greater induction at 1mM
[3]
  induction of the genes tested: induced all genes to similar levels as SA
[5]
  G3-2 induction at 0.1 mM versus 1 mM: equal or greater induction at 0.1 mM versus 1 mM
[2]
  C18-1/EREBP1 induction at 0.1 mM versus 1 mM: greater induction at 1mM
[6]
  G8-1 induction at 0.1 mM versus 1 mM: equal or greater induction at 0.1 mM versus 1 mM

## O=C(O)c1ccccc1 [BA, benzoic acid]
[1]
  C6-2 induction at 0.1 mM versus 1 mM: greater induction at 1mM
[3]
  induction of the genes tested: also induced the expression
[5]
  G3-2 induction at 0.1 mM versus 1 mM: equal or greater induction at 0.1 mM versus 1 mM
[2]
  C18-1/EREBP1 induction at 0.1 mM versus 1 mM: greater induction at 1mM
[6]
  G8-1 induction at 0.1 mM versus 1 mM: equal or greater induction at 0.1 mM versus 1 mM

## C[C@@H]1C[C@@H]([C@H](O)CC2CC(=O)NC(=O)C2)C(=O)[C@@H](C)C1 [CHX, cycloheximide]
[7]
  mRNA induction of Class I genes: some induction
[8]; [10]
  effect of CHX on induction of class IV genes by SA: blocked the induction
[8]; [11]
  mRNA induction of class IV genes: fail to induce
[9]
  mRNA induction of class II genes: also induced expression
[6]; [10]
  effect of presence of CHX on induction of G8-1 by SA: did not significantly alter
[6]; [11]
  mRNA induction of G8-1 (class III): did not induce

## CC/C=C\CC1C(=O)CCC1CC(=O)OC (centres unmarked) [MJ, Methyljasmonate]
[4]
  effectiveness as inducer of C14-1b among compounds tested: most effective inducer
  induction of C14-1b: able to induce expression
[5]
  induction of G3-2: able to induce expression
[2]
  effectiveness as inducer of C18-1/EREBP1 among compounds tested: most effective inducer
  induction of C18-1/EREBP1: able to induce expression

## Cc1ncc(C[n+]2csc(CCO)c2C)c(N)n1 [thiamine]
[3]
  induction of the genes tested: did not produce a response from any of the genes tested
